Results published in patent US8569489B2 (A.B. Intelpharm Limited, priority 2007, dated 2013).
Structures can show the parent of a compound that is named as a salt. Where two headings read alike, the source gives them in different places.

What was measured:
[1] = tested on: mice; assay: Acute toxicity, mice perorally
[2] = tested on: H1-histamine receptors (bronchoconstrictor effect of histamine); assay: Anesthetized guinea pigs, antagonism of the bronchoconstrictor effect of histamine (histamine bronchospasm model); assay type: in vivo, guinea pig; settings: for Antihistaminic activity, guinea pigs in vivo, intravenous administration, ED50 / Antihistaminic activity, guinea pigs in vivo, peroral administration, ED50: anesthetized guinea pigs; for Antihistaminic activity, guinea pigs in vivo, intravenous administration, ED50: 5 minutes before histamine; for Antihistaminic activity, guinea pigs in vivo, peroral administration, ED50: orally 2 hours before the study; for ED50: Cavia porcellus
Protocol: In tests on intact animals, substances were administered intravenously (5 minutes before the administration of histamine) and orally (2 hours before the beginning of the study).

[3] = tested on: isolated guinea pig ileum (spasmogenic effect of histamine); assay: Isolated guinea pig ileum, suppression of the spasmogenic effect of histamine; assay type: cell-based; settings: histamine spasm, read-out: Antihistaminic activity, isolated ileum of guinea pig, IC50
Source text: Study of the antihistaminic activity of the compounds on which a claim is made was done using known methodologies (Rukovodstvo po eksperimental'nomu izucheniyu novykh farmakologicheskikh veshchestv [Manual on experimental study of new pharmacological substances], Moscow, 2005, p. 489) on isolated guinea pig ileum (suppression of the spasmogenic effect of histamine) and on anesthetized guinea pigs (antagonism in relation to the bronchoconstrictor effect of histamine). In tests on intact animals, substances were administered intravenously (5 minutes before the administration of histamine) and orally (2 hours before the beginning of the study).

IC50 [3]	Compound	Acute toxicity, LD50 [1]	also measured
–	Cl.Cl.Cn1c(=O)c2c(ncn2CC(O)CN2CCN(C(c3ccc(F)cc3)c3ccc(F)cc3)CC2)n(C)c1=O (racemic) [II-j]	>1000.0 mg/kg	–
1270 nM	Cn1cnc2c1c(=O)n(CC(O)CN1CCN(C(c3ccccc3)c3ccccc3)CC1)c(=O)n2C (centres unmarked) [I-x, 1-[2-oxy-3-(benzhydryl-4-piperazinyl-1)propyl]-3,7-dimethylxanthine dihydrochloride]	–	–
536 nM	Cn1c(=O)n(CC(O)CN2CCN(C(c3ccccc3)c3ccc(Cl)cc3)CC2)c(=O)c2c1ncn2Cc1ccccc1 (centres unmarked) [I-aa, 1-[2-oxy-3-(4^1-chlorbenzhydryl-4-piperazinyl-1)propyl]-3-methyl-7-benzylxanthine]	–	–
–	Cl.Cl.Cn1c(=O)c2c(ncn2CC(O)CN2CCN(C(c3ccccc3)c3ccc(Cl)cc3)CC2)n(C)c1=O (racemic) [II-i]	>1000.0 mg/kg	–
524 nM	Cn1c(=O)n(CC(O)CN2CCN(C(c3ccccc3)c3ccccc3)CC2)c(=O)c2c1ncn2Cc1ccccc1 (centres unmarked) [I-z, 1-[2-oxy-3-(benzhydryl-4-piperazinyl-1)-propyl]-3-methyl-7-benzylxanthine]	–	–
–	CCOC(=O)N1CCC(=C2c3ccc(Cl)cc3CCc3cccnc32)CC1 [Loratadine, reference compound]	–	ED50 ([2]; iv, read-out: Antihistaminic activity, guinea pigs in vivo, intravenous administration, ED50): 0.3 mg/kg; ED50 ([2]; po, read-out: Antihistaminic activity, guinea pigs in vivo, peroral administration, ED50): 0.9 mg/kg; Duration of effective blockade of H1-histamine receptors ([2]; histamine bronchospasm model, oral dose of 3 mg/kg): 18 h; IC50 ([3]; Cavia porcellus): 472 nM
192 nM	Cl.Cl.Cn1c(=O)n(CCN2CCN(C(c3ccc(F)cc3)c3ccc(F)cc3)CC2)c(=O)c2[nH]cnc21 [I-p]	–	Antihistaminic activity, guinea pigs in vivo, intravenous administration, ED50 [2]: 1.5 mg/kg
–	Cl.Cl.Cn1c(=O)c2c(ncn2CC(O)CN2CCN(C(c3ccccc3)c3ccccc3)CC2)n(C)c1=O (centres unmarked) [II-h, 1,3-dimethyl-7-[2-oxy-3-(benzhydryl-4-piperazinyl-1)propyl]xanthine dihydrochloride]	>1000.0 mg/kg	Antihistaminic activity, guinea pigs in vivo, intravenous administration, ED50 [2]: 0.1 mg/kg; Antihistaminic activity, guinea pigs in vivo, peroral administration, ED50 [2]: 2.0 mg/kg
514 nM	Cn1c(=O)n(CCCN2CCN(C(c3ccc(F)cc3)c3ccc(F)cc3)CC2)c(=O)c2c1ncn2Cc1ccc(F)cc1 [I-f]	–	–
244 nM	Cn1c(=O)n(CCCN2CCN(C(c3ccccc3)c3ccccc3)CC2)c(=O)c2c1ncn2CC(=O)O [I-g]	–	–
430 nM	Cn1c(=O)n(CCCN2CCN(C(c3ccccc3)c3ccccc3)CC2)c(=O)c2c1ncn2Cc1ccc(F)cc1 [I-e]	–	–
123 nM	Cn1cnc2c1c(=O)n(CC(O)CN1CCN(C(c3ccccc3)c3ccc(Cl)cc3)CC1)c(=O)n2C (centres unmarked) [I-y, 1-[2-oxy-3-(4^1-chlorbenzhydryl-4-piperazinyl-1)propyl]-3,7-dimethylxanthine]	–	–

Compound	IC50 [3]	Acute toxicity, LD50 [1]	also measured
Cl.Cl.Cn1c(=O)n(CCCN2CCN(C(c3ccccc3)c3ccccc3)CC2)c(=O)c2c1ncn2Cc1ccccc1 [I-b]	126 nM	>800.0 mg/kg	Antihistaminic activity, guinea pigs in vivo, intravenous administration, ED50 [2]: 0.3 mg/kg
Cl.Cl.Cn1c(=O)n(CCCCN2CCN(C(c3ccc(F)cc3)c3ccc(F)cc3)CC2)c(=O)c2c1ncn2Cc1ccc(F)cc1 [I-k]	267 nM	400.0 mg/kg	–
Cl.Cl.Cn1c(=O)[nH]c(=O)c2c1ncn2CCCN1CCN(C(c2ccccc2)c2ccccc2)CC1 [II-e]	19 nM	900.0 mg/kg	Antihistaminic activity, guinea pigs in vivo, intravenous administration, ED50 [2]: 0.1 mg/kg
Cl.Cl.Cn1c(=O)n(CCCN2CCN(C(c3ccccc3)c3ccc(Cl)cc3)CC2)c(=O)c2c1ncn2Cc1ccccc1 (centres unmarked) [I-c]	133 nM	400.0 mg/kg	–
Cl.Cl.Cn1c(=O)n(CCCN2CCN(C(c3ccc(F)cc3)c3ccc(F)cc3)CC2)c(=O)c2[nH]cnc21 [I-r]	76 nM	>1000.0 mg/kg	Antihistaminic activity, guinea pigs in vivo, peroral administration, ED50 [2]: >3.0 mg/kg
Cl.Cl.Cn1c(=O)n(CCCCN2CCN(C(c3ccccc3)c3ccccc3)CC2)c(=O)c2c1ncn2Cc1ccc(F)cc1 [I-j]	227 nM	400.0 mg/kg	–
Cl.Cl.Cn1c(=O)n(CCCCCN2CCN(C(c3ccccc3)c3ccccc3)CC2)c(=O)c2c1ncn2Cc1ccccc1 [I-m]	92 nM	>200.0 mg/kg	–
